Values of other authors, collected in patent US8905760B2, “Methods and systems for progressively treating and controlling oral periopathogens causing systemic inflammations” (priority 2008, dated 2014).
Where a name gives a salt, the structure may show the parent alone.

Settings: IPT group: standard periodontal therapy with adjunctive local delivery of minocycline-HCl (Arestin); N=20; P<0.0001, t test

Structure (SMILES): CN(C)c1ccc(O)c2c1C[C@H]1C[C@H]3[C@H](N(C)C)C(O)=C(C(N)=O)C(=O)[C@@]3(O)C(O)=C1C2=O [minocycline-HCl]
- reduction of periodontal lesions after therapy (mean difference): 60±23
